According to patent US20230181536A1, “ANTICANCER COMBINATION THERAPY WITH N-(1-ACRYLOYL-AZETIDIN-3-YL)-2-((1H-INDAZOL-3-YL)AMINO)METHYL)-1H-IMIDAZOLE-5-CARBOXAMIDE INHIBITOR OF KRAS-G12C” (TAIHO PHARMACEUTICAL CO., LTD., priority 2020, published 2023):

molecular target: T1, KRAS G12C (Homo sapiens, UniProt P01116, G12C); assay: Inhibitory activity on the KRAS G12C nucleotide (GDP-GTP) exchange reaction; type: biochemical; settings: Bodipy FL GDP-bound KRAS G12C 25 nM; preincubation at 25° C. for 4 hours; SOS1 100 nM, GppNHp 1 μM, reaction for 30 minutes
T1 construct: KRAS G12C (amino acid region: 1-169)
T1 sequence (P01116 1-169 isoform P01116-2 G12C): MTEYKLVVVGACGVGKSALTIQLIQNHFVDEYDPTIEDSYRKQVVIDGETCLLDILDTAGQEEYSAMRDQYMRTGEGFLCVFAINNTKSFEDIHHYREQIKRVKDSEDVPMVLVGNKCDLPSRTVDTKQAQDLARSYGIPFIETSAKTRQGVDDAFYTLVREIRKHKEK
Experimental: Test Example 2: Evaluation of Inhibitory Activity of Compounds on the KRAS G12C Nucleotide (GDP-GTP) Exchange Reaction
The inhibitory activity of compounds on the exchange reaction of GDP into GppNHp in Bodipy (trademark) FL-bound KRAS G12C was examined by fluorescence measurement using human recombinant KRAS G12C and SOS1 proteins.
For the preparation of KRAS G12C to which Bodipy FL GDP was bound, first, 50 µM KRAS G12C (amino acid region: 1-169) and 1 mM Bodipy FL GDP (Invitrogen, G22360) were incubated for 1 hour in a buffer (20 mM Tris-HCl (pH 7.5), 50 mM NaCl, 1 mM DTT) in ice in the presence of 2.5 mM EDTA. Thereafter, MgCl2 with a final concentration of 10 mM was added, and the mixture was incubated at room temperature for 30 minutes. The protein was allowed to pass through a NAP-5 column to remove free nucleotides and was used for compound evaluation.
For the measurement of the inhibitory activity of compounds on nucleotide exchange reaction, first, the compound of the disclosure was diluted stepwise with dimethyl sulfoxide (DMSO). Subsequently, a solution of the gradually diluted compound of the disclosure in DMSO (the final concentration of DMSO: 5%) and KRAS G12C (25 nM) bound to Bodipy FL GDP were added to a reaction buffer (20 mM Tris-HCl (pH 7.5), 100 mM NaCl, 1 mM MgCl2, 2 mM DTT, 0.1% Tween20), followed by preincubation at 25° C. for 4 hours. Thereafter, Son of Sevenless Homolog 1 (SOS1, amino acid region: 564-1049) and GppNHp (GMPPNP, Jena Bioscience GmbH, NU-401-50) were added such that their final concentration was 100 nM and 1 μM respectively, followed by reaction for 30 minutes. The change in fluorescence intensity of Bodipy FL (excitation wavelength: 485 nm, fluorescence wavelength: 520 nm) immediately after the start of reaction and after 30 minutes from the start of reaction was standardized. The signal value for only DMSO was determined to be 0% inhibition, and the signal value for no addition of GppNHp was determined to be 100% inhibition. The compound concentration at which 50% inhibition is achieved was determined to be the IC50 (nM) and was calculated.

IC50 [nM]	Compound
122	Cc1nc(CNc2n[nH]c3cc(Cl)c(C(C)(C)C)cc23)n(C(C)C)c1C(=O)NC1CN(C(=O)/C=C/CN2CCCCC2)C1 [Example 79, (E)-2-(((5-(tert-butyl)-6-chloro-1H-indazol-3-yl)amino)methyl)-1-isopropyl-4-methyl-N-(1-(4-(piperidin-1-yl)but-2-enoyl)azetidin-3-yl)-1H-imidazole-5-carboxamide]
8	C=CC(=O)N1CC(NC(=O)c2c(Cl)nc(CNc3n[nH]c4cc(Cl)c(C(C)(C)C)cc34)n2[C@H]2CCN(C(C)C)C2)C1 [Example 116, (S)-N-(1-acryloylazetidin-3-yl)-2-(((5-(tert-butyl)-6-chloro-1H-indazol-3-yl)amino)methyl)-4-chloro-1-(1-isopropylpyrrolidin-3-yl)-1H-imidazole-5-carboxamide]
6	C=CC(=O)N1CC(NC(=O)c2c(Cl)nc(CNc3n[nH]c4cc(Cl)c(C(C)(C)C)cc34)n2[C@@H]2CCN(C3CC3)C2)C1 [Example 120, (R)-N-(1-acryloylazetidin-3-yl)-2-(((5-(tert-butyl)-6-chloro-1H-indazol-3-yl)amino)methyl)-4-chloro-1-(1-cyclopropylpyrrolidin-3-yl)-1H-imidazole-5-carboxamide]
44	C=CC(=O)N1CC(NC(=O)c2c(C(F)F)nc(CNc3n[nH]c4cc(Cl)c(C(C)(C)C)cc34)n2CC2CCCN2C(C)C)C1 (stereo not shown) [Example 95, N-(1-acryloylazetidin-3-yl)-2-(((5-(tert-butyl)-6-chloro-1H-indazol-3-yl)amino)methyl)-4-(difluoromethyl)-1-((1-isopropylpyrrolidine-2-yl)methyl)-1H-imidazole-5-carboxamide]
14	C=CC(=O)N1CC(NC(=O)c2c(Cl)nc(CNc3n[nH]c4cc(Cl)c(C(C)(C)C)cc34)n2CC(F)F)C1 [Example 100, N-(1-acryloylazetidin-3-yl)-2-(((5-(tert-butyl)-6-chloro-1H-indazol-3-yl)amino)methyl)-4-chloro-1-(2,2-difluoroethyl)-1H-imidazole-5-carboxamide]

More lines, now with the values behind:

Compound	IC50 [nM]
C=CC(=O)N1CC(NC(=O)c2c(C)nc(CNc3n[nH]c4cc(Cl)c(C(C)(C)C)cc34)n2Cc2ccccc2)C1 [Example 15, N-(1-acryloylazetidin-3-yl)-1-benzyl-2-(((5-(tert-butyl)-6-chloro-1H-indazol-3-yl)amino)methyl)-4-methyl-JH-imidazole-5-carboxamide]	84
C=CC(=O)N1C[C@@H](CN(C)C)[C@@H](NC(=O)c2c(C)nc(CNc3n[nH]c4cc(Cl)c(C(C)(C)C)cc34)n2C)C1 [Example 68, N-((3R,4R)-1-acryloyl-4-((dimethylamino)methyl)pyrrolidin-3-yl)-2-(((5-(tert-butyl)-6-chloro-1H-indazol-3-yl)amino)methyl)-1,4-dimethyl-1H-imidazole-5-carboxamide]	99
C=CC(=O)N1CC[C@@H](N(C)C(=O)c2cnc(CNc3n[nH]c4cc(Cl)c(C(C)(C)C)cc34)n2C)C1 [Example 77, (R)-N-(1-acryloylpyrrolidin-3-yl)-2-(((5-(tert-butyl)-6-chloro-1H-indazol-3-yl)amino)methyl)-N,1-dimethyl-1H-imidazole-5-carboxamide]	142
C=CC(=O)N1C[C@H](NC(=O)c2c(C)nc(CNc3n[nH]c4cc(Cl)c(C(C)(C)C)cc34)n2C)C2(CC2)C1 [Example 54, (R)-N-(5-acryloyl-5-azaspiro[2.4]heptan-7-yl)-2-(((5-(tert-butyl)-6-chloro-1H-indazol-3-yl)amino)methyl)-1,4-dimethyl-1H-imidazole-5-carboxamide]	301
C=CC(=O)N1CC(NC(=O)c2c(Cl)c(CNc3n[nH]c4cc(Cl)c(C(C)(C)C)cc34)nn2C)C1 [Example 6, N-(1-acryloylazetidin-3-yl)-3-(((5-(tert-butyl)-6-chloro-1H-indazol-3-yl)amino)methyl)-4-chloro-1-methyl-1H-pyrazole-5-carboxamide]	791
